Our source for the Relative tumor volume values is US8334364B2, “High-molecular weight derivative of nucleic acid antimetabolite” (priority 2006, dated 2012).

The structures appear in SMILES notation. Where a name gives a salt, the structure may show the parent alone.

The test system of test [1] is mouse colon cancer, Colon26. Briefly: Antitumor effect against tumor-bearing mouse (1). In kind it is in vivo. The following applies: once intravenously, 7th day after initiation of administration, average ± SD, volume on day of initiation = 1.0. The text has this: Tumor of mouse colon cancer, Colon26, maintained by serial subcutaneous subculture in mice, was minced into about 2-mm square blocks, and the blocks were transplanted subcutaneously on the dorsal part of a mouse using a trocar. On the 7th day after tumor transplantation, the compound of Example 1 (indicated as Compound 1 in Table 2) and the compound of Example 2 (indicated as Compound 2 in Table 2), respectively dissolved in physiological saline, and gemcitabine hydrochloride as a control drug dissolved in a 5% glucose injection solution were respectively administered once intravenously at the doses indicated in Table 2. The tumor volumes on the day of initiation of administration and on the 7th day after the initiation of administration were calculated by the following equation, and the relative tumor volumes on the day of initiation of administration and on the 7th day after the initiation of administration were determined.

In test [2] the test system is mouse colon cancer, Colon26. Nature of the test: Antitumor effect against tumor-bearing mouse (2). The note with it: once intravenously, 8th day after initiation of administration, average ± SD, volume on day of initiation = 1.0. In kind it is in vivo. The text has this:
Tumor of mouse colon cancer, Colon26, maintained by serial subcutaneous subculture in mice, was minced into about 2-mm square blocks, and the blocks were transplanted subcutaneously on the dorsal part of a mouse. On the 7th day after tumor transplantation, the compound of Example 3 (indicated as Compound 3 in Table 3) and the compound of Example 4 (indicated as Compound 4 in Table 3), respectively dissolved in physiological saline, and gemcitabine hydrochloride as a control drug dissolved in a 5% glucose injection solution were respectively administered once intravenously at the doses indicated in Table 3. The tumor volumes on the day of initiation of administration and on the 8th day after the initiation of administration were calculated in the same manner as in Test Example 3, and the relative tumor volumes on the day of initiation of administration and on the 8th day after the initiation of administration were determined.

Setting [3] is: dose 200 mg/kg in terms of gemcitabine hydrochloride.

As to `Nc1ccn([C@@H]2O[C@H](CO)[C@@H](O)C2(F)F)c(=O)n1` [Control drug, gemcitabine hydrochloride], the Relative tumor volume stood at 3.9 ± 0.5 in test [1] (dose 100 mg/kg in terms of gemcitabine hydrochloride), 3.4 ± 0.6 in test [1] (setting [3]), 5.3 ± 1.1 in test [2] (dose 40 mg/kg in terms of gemcitabine hydrochloride) and 4.8 ± 1.7 in test [2] (setting [3]).
